# According to patent US8318815B2, “Method for treatment of tumors using nordihydroguaiaretic acid derivatives” (priority 1999, dated 2012):
# Columns and labels:
# [1] = tested on: HIV LTR promoter (Tat-transactivation); assay: Tat-transactivation of HIV promoter activity in Cos cells, SEAP assay; format: cell-based; conditions: read-out: IC50 for inhibition of HIV Tat-regulated transactivation
# Description: As reported previously, methylated NDGA derivatives can block Sp1 binding to the enhancer sites of a variety of viral promoters including HIV, ICP4 of HSV, E6/E7 gene of HPV (8, 9, 10). We further tested the G4N effect on the Tat-transactivation of HIV promoter activity in Cos cells by the SEAP assay as previously described. […] There were 60-fold or more increase in SEAP expression when Cos cells were cotransfected with the CMV promoter driven Tat gene (8). Such Tat-driven ransactivation of the HIV LTR promoter activity was previously shown to be Sp1 regulated (7, 8). In the presence of G4N, we observed inhibition of HIV transactivation in a dose-dependent fashion (FIG. 14). […]. The differences perhaps are due to the chemical nature of the test compounds affecting the drug uptake to the cells.
# survivin gene expression = assay: RT-PCR analysis of survivin gene expression in C3 cells; format: cell-based, mouse; conditions: 40 μM
# Procedure: FIG. 17. RT-PCR Analysis of Survivin Gene Expression. […] Bottom: the corresponding GAPDH controls. Band intensities were quantitated with Scion Image. (b) Survivin RT-PCR product signals were normalized to those of the GAPDH controls and plotted.
# M4N Treatment. C3 cells (5×10^6) were seeded in 150-mm plates and allowed to attach to the plates. Twenty-four hours after seeding, cultures were washed twice with PBS and treated with M4N dissolved in 1% DMSO mixed with the growth medium.
# RT-PCR analysis. mRNA was isolated by the guanidinium thiocyanate and phenol method from the cultured cells as described in Molecular Cloning (40). […] The c-DNA products obtained were amplified under the PCR conditions: […], 60° C. for 55 seconds, and 72° C. for 1 minute for 30 cycles.
# caspase-3 = conditions: C3 cells, 72 hours
smiles,measurement,setting,value
"COc1ccc(C[C@@H](C)[C@@H](C)Cc2ccc(OC)c(OC)c2)cc1OC [M4N, tetra-O-methylnordihydroguaiaretic acid]",IC50,[1],11 µM
same,reduction in survivin expression,survivin gene expression; 24 hours,65%
same,reduction in survivin expression,survivin gene expression; 72 hours,80%
same,caspase-3 cleavage,caspase-3,caspase-3 activation
